The source of these data is ChEMBL document CHEMBL5291721, “A preclinical secondary pharmacology resource illuminates target-adverse drug reaction associations of marketed drugs” (Nat Commun, 2023).

The target in assay [1] is Sodium-dependent serotonin transporter (Homo sapiens, UniProt P31645).
For another assay, the target named is T1, Adenosine receptor A3 (Homo sapiens, UniProt P0DMS8).
T1 sequence (P0DMS8 whole entry): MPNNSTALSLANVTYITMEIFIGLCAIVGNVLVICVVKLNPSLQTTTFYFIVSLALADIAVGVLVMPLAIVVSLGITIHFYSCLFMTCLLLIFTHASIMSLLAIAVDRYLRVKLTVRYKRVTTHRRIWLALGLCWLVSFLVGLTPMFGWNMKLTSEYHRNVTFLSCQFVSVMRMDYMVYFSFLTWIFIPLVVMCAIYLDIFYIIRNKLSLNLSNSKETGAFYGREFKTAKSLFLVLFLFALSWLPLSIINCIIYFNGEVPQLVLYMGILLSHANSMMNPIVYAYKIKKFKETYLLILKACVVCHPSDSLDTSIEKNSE

Assay [2] deals with T2, Alpha-2A adrenergic receptor (Homo sapiens, UniProt P08913).
T2 sequence (P08913 whole entry): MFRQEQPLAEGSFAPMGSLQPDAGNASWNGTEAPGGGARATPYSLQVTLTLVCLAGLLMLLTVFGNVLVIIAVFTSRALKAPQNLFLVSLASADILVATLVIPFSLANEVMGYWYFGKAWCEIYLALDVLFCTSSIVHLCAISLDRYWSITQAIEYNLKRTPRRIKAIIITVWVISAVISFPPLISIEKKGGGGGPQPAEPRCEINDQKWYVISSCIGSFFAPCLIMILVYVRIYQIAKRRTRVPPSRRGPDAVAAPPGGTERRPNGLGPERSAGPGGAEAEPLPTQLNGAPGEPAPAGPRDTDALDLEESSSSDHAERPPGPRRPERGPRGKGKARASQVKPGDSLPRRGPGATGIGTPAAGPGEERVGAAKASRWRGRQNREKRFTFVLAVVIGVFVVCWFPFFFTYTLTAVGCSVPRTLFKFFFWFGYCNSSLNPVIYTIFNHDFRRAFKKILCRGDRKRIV
The class given is functional, cell-based.

The target in assay [3] is T3, Alpha-1A adrenergic receptor (Homo sapiens, UniProt P35348).
T3 sequence (P35348 whole entry): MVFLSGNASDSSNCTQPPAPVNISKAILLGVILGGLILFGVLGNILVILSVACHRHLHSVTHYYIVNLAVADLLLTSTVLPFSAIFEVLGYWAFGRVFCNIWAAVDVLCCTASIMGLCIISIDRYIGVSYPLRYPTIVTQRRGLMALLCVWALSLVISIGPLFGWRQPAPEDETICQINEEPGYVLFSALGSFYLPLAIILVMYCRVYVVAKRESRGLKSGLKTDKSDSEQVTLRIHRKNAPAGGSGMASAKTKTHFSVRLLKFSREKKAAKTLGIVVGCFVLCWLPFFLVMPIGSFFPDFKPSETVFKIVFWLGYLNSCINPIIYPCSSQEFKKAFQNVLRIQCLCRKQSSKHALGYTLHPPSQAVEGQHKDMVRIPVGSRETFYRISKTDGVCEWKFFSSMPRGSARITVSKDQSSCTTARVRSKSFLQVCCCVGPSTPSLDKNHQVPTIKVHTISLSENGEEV
The class given is functional, cell-based.

For assay [4], the target named is T4, Muscarinic acetylcholine receptor M2 (Homo sapiens, UniProt P08172).
T4 sequence (P08172 whole entry): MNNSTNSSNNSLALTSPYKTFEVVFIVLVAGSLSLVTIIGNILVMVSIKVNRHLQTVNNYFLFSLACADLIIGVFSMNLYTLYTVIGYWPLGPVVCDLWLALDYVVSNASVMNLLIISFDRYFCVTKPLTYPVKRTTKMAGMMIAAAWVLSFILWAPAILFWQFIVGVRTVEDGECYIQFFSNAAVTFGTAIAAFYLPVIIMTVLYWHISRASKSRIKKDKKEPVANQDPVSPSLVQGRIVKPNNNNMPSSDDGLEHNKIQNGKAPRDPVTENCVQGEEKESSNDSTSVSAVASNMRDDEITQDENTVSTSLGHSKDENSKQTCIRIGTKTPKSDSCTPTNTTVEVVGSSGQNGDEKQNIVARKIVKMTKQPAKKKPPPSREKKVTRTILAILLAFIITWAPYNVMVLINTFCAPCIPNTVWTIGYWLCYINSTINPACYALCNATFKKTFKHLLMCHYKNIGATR
In kind it is functional, cell-based.

Assay [5] has as its target Gamma-aminobutyric acid receptor subunit alpha-1 (Rattus norvegicus, UniProt P62813). In kind it is functional.
Assay [6] deals with cGMP-inhibited 3',5'-cyclic phosphodiesterase 3A (Homo sapiens, UniProt Q14432). The class given is functional.
Chain of cGMP-inhibited 3',5'-cyclic phosphodiesterase 3A (Q14432 whole entry): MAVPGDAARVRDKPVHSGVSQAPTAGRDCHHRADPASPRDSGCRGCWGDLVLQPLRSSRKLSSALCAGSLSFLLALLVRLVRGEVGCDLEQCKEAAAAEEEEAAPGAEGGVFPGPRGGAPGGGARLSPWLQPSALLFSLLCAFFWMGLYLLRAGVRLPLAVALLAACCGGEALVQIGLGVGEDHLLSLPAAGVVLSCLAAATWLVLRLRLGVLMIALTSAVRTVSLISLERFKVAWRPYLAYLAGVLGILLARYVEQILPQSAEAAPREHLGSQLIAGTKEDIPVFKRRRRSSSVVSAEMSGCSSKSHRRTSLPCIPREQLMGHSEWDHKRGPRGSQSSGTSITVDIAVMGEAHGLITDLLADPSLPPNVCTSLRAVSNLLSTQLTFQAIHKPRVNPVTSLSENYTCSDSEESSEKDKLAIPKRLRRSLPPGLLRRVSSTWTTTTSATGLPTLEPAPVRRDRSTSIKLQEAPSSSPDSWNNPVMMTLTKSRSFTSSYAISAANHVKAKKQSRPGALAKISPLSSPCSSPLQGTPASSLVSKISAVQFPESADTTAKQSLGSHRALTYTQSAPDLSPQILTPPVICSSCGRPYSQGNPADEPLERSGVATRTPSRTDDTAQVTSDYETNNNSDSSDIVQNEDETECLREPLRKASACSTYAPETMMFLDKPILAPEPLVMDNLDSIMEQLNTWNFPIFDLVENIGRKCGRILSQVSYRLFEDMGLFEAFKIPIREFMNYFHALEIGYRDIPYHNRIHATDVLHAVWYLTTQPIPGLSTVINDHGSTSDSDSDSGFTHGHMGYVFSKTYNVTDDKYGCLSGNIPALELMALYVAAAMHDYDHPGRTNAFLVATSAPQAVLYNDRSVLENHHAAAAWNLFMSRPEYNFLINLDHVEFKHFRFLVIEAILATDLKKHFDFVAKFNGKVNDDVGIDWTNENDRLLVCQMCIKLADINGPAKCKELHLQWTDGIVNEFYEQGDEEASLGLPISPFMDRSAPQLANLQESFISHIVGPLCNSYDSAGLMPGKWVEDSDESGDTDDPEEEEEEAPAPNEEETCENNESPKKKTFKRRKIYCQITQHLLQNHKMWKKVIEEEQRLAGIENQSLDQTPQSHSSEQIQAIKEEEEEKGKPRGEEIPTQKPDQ
The target of another assay is Histamine H3 receptor (Homo sapiens, UniProt Q9Y5N1).
Chain of Histamine H3 receptor (Q9Y5N1 whole entry): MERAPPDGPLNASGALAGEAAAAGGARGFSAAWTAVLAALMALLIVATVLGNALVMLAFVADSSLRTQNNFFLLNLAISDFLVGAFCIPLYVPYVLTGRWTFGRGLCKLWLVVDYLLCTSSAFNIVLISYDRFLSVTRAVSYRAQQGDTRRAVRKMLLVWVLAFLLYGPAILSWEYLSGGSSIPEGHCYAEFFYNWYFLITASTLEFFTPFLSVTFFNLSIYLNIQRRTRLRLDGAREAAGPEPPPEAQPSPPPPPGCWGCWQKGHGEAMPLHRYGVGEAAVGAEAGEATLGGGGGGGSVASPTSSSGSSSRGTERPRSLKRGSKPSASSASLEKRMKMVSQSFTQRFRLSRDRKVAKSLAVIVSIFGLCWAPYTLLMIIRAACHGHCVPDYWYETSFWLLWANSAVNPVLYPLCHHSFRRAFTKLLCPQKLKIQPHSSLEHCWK
Assay [7] concerns the target Sodium-dependent dopamine transporter (Homo sapiens, UniProt Q01959).
Another assay addresses Histamine H2 receptor (Homo sapiens, UniProt P25021). The class given is functional, cell-based.
Assay [8] addresses Kappa-type opioid receptor (Homo sapiens, UniProt P41145).
In assay [9] the target is Glutamate receptor ionotropic, NMDA 1 (Rattus norvegicus, UniProt P35439).
The next assay has as its target T5, B2 bradykinin receptor (Homo sapiens, UniProt P30411).
T5 sequence (P30411 whole entry): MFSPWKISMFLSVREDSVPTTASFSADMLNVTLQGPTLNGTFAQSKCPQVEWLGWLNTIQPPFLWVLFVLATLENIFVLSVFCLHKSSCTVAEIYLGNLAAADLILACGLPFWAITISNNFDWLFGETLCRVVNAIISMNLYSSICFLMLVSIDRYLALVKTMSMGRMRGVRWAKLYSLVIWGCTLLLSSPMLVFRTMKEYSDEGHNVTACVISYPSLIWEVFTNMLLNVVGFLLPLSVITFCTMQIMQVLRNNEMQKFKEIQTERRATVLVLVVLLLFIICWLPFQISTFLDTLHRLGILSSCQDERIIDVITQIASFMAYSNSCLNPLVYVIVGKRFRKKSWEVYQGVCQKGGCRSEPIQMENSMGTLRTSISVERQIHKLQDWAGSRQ
Note: assay procedure not described here.

Chain of Sodium-dependent dopamine transporter (Q01959 whole entry): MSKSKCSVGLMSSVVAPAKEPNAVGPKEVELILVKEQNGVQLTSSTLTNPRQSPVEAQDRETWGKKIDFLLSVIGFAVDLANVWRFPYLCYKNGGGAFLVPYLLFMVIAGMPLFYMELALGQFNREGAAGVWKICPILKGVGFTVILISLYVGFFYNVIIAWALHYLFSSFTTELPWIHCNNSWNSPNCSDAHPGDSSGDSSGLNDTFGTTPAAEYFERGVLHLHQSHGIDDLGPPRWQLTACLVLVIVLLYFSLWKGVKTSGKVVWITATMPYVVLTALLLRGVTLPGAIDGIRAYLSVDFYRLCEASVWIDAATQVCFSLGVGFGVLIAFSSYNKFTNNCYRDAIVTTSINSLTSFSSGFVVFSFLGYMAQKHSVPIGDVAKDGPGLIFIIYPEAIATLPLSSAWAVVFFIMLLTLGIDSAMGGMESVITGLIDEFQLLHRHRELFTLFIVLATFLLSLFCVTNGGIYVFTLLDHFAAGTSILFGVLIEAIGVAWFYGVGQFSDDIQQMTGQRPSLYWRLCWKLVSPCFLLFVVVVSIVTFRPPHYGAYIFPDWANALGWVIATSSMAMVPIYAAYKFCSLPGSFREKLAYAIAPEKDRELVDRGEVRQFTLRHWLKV
Chain of Histamine H2 receptor (P25021 whole entry): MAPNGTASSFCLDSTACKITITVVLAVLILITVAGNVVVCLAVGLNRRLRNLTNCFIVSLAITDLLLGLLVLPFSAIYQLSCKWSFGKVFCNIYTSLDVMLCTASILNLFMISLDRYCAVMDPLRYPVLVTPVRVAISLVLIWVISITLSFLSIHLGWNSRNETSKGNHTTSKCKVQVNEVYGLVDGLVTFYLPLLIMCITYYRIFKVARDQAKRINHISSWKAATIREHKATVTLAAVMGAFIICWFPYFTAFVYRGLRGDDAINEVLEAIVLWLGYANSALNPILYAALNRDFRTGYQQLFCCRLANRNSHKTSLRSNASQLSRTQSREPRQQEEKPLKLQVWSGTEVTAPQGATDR
Chain of Kappa-type opioid receptor (P41145 whole entry): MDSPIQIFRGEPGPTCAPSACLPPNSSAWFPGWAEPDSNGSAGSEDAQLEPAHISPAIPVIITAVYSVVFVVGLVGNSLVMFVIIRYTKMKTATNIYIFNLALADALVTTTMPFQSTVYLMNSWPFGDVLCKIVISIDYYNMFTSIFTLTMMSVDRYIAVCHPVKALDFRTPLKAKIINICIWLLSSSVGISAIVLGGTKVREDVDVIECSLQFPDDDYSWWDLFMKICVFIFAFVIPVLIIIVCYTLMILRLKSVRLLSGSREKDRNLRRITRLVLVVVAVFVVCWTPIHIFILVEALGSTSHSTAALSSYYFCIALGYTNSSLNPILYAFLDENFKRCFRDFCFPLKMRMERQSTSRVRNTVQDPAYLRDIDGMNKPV
Chain of Gamma-aminobutyric acid receptor subunit alpha-1 (P62813 whole entry): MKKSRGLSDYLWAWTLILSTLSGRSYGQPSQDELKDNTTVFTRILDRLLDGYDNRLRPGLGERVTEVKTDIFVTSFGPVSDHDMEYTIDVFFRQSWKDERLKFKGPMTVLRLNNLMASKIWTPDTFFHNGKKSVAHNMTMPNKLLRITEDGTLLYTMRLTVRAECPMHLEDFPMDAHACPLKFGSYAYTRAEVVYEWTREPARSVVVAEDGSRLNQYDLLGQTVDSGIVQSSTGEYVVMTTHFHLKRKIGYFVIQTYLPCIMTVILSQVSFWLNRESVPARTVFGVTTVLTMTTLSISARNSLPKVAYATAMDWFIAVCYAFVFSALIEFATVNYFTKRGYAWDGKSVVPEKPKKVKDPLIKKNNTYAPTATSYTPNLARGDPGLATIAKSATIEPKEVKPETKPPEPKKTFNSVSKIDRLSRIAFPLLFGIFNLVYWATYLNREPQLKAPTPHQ
Chain of Sodium-dependent serotonin transporter (P31645 whole entry): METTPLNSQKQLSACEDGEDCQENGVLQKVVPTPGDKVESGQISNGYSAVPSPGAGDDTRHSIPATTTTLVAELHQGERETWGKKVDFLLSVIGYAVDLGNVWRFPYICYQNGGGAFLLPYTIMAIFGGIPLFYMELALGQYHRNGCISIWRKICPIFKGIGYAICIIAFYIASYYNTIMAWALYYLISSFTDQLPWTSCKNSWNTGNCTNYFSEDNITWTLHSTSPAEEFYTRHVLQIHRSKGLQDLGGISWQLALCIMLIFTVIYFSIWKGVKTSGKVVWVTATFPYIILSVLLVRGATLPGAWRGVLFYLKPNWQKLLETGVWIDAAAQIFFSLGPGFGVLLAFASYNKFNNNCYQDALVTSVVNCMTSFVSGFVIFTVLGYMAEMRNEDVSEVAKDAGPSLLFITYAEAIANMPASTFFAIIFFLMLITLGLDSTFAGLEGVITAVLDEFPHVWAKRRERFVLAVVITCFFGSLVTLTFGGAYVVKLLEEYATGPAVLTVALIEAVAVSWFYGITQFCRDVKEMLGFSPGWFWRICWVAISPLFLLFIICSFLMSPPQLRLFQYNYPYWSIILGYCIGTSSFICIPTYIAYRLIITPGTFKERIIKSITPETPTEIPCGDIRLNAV

In general, AC50 refers to the midpoint of the concentration-response curve, whichever way the signal moves. A higher AC50 goes with activity only at high concentration. Turning to `CN(C)CCCN1C(=O)c2cc([N+](=O)[O-])ccc2Oc2ccccc21`, the concentration at half-maximal activity (AC50) in assay [1] was 0.271 µM; at Adenosine receptor A3, greater than 30 µM.

On to `O=S(=O)(O)CCS` [2-MERCAPTOETHANESULFONIC ACID], for which the concentration at half-maximal activity (AC50) on Adenosine receptor A3 was greater than 30 µM.

With `O=C(O)CCCc1ccc(N(CCCl)CCCl)cc1` [CHLORAMBUCIL], the AC50 at Adenosine receptor A3 is greater than 30 µM.

`Cn1c(=O)c2c(ncn2CC(O)CO)n(C)c1=O` (stereo not drawn) [DYPHYLLINE] displayed an AC50 at Adenosine receptor A3 greater than 30 µM.

As for `C#Cc1cccc(Nc2ncnc3cc(OCCOC)c(OCCOC)cc23)c1` [ERLOTINIB], the concentration at half-maximal activity (AC50) (in assay [2]; in assay [3]; in [4]; in [5]; in assay [6]; on Histamine H3 receptor) was greater than 30 µM in each case. Further, the figures for the AC50 (in assay [7]; at Adenosine receptor A3) were greater than 30 µM and 3.01 µM, respectively.

As for `CCC(=O)O[C@@H](O[P@](=O)(CCCCc1ccccc1)CC(=O)N1C[C@H](C2CCCCC2)C[C@H]1C(=O)O)C(C)C` [FOSINOPRIL], the concentration at half-maximal activity (AC50) (at Histamine H2 receptor; in [8]; in assay [2]; in assay [3]; in assay [4]; in [5]) was greater than 30 µM in each case. In addition, the AC50 in [6], in assay [1] and in assay [9] was greater than 30 µM in each case.

As to `CC1(C)O[C@@H]2C[C@H]3[C@@H]4CCC5=CC(=O)CC[C@]5(C)[C@@]4(F)[C@@H](O)C[C@]3(C)[C@]2(C(=O)CCl)O1` [HALCINONIDE], the half-maximal activity concentration (AC50) at Adenosine receptor A3 is greater than 30 µM.

Consider `CC(C)(N)C(=O)N[C@H](Cc1c[nH]c2ccccc12)C(=O)N[C@H](Cc1c[nH]c2ccccc12)NC=O` [MACIMORELIN], for which the concentration at half-maximal activity (AC50) in assay [1] is greater than 30 µM.

With `CCOc1cc(N)c(Cl)cc1C(=O)NCC1CN(Cc2ccc(F)cc2)CCO1` (stereo not drawn) [MOSAPRIDE], at Adenosine receptor A3, the activity was half-maximal at 14.5 µM (AC50).

On Adenosine receptor A3, `CN1CCC[C@H]1c1cccnc1` [NICOTINE] came in with a concentration at half-maximal activity (AC50) greater than 30 µM.

`C#C[C@]1(O)CC[C@H]2[C@@H]3CCC4=C(CCC(=O)C4)[C@H]3CC[C@@]21C` [NORETHYNODREL] returned an AC50 on Adenosine receptor A3 of 10.1 µM.

Regarding `CN(C)c1cc(CNCC(C)(C)C)c(O)c2c1C[C@H]1C[C@H]3[C@H](N(C)C)C(O)=C(C(N)=O)C(=O)[C@@]3(O)C(O)=C1C2=O` [OMADACYCLINE], the half-maximal activity concentration (AC50) (on Histamine H2 receptor; in [2]; at B2 bradykinin receptor; in assay [3]; in assay [4]; in assay [5]) was greater than 30 µM throughout. Moreover, the concentration at half-maximal activity (AC50) is greater than 30 µM in assay [6]; greater than 30 µM in assay [1]; 24 µM on Histamine H3 receptor; greater than 30 µM in assay [7]; greater than 30 µM in [9].

Regarding `CNC(=O)c1cc(Oc2ccc(NC(=O)Nc3ccc(Cl)c(C(F)(F)F)c3)c(F)c2)ccn1` [REGORAFENIB], the concentration at half-maximal activity (AC50) in assay [3] is greater than 30 µM; in assay [4], greater than 30 µM; in assay [6], greater than 30 µM; in assay [1], greater than 30 µM; in [7] it was 6.33 µM.

Turning to `CC(C)N(CCCCOCC(=O)NS(C)(=O)=O)c1cnc(-c2ccccc2)c(-c2ccccc2)n1` [SELEXIPAG], the AC50 on Histamine H2 receptor is greater than 30 µM; in [8], 29 µM; in assay [2], greater than 30 µM; at B2 bradykinin receptor it was greater than 10 µM; in assay [3], greater than 30 µM; in [4], greater than 30 µM. Besides, the AC50 (in [5]; in assay [6]; at Histamine H3 receptor; in [7]; in assay [9]) was greater than 30 µM in each case.

Turning to `CC(=O)S[C@@H]1CC2=CC(=O)CC[C@]2(C)[C@H]2CC[C@@]3(C)[C@@H](CC[C@@]34CCC(=O)O4)[C@H]12` [SPIRONOLACTONE], the AC50 was greater than 10 µM at Histamine H2 receptor; 14.8 µM in assay [8]; greater than 30 µM in [2]; greater than 30 µM on B2 bradykinin receptor; greater than 30 µM in assay [3]; greater than 30 µM in assay [4]. Further, the concentration at half-maximal activity (AC50) is greater than 10 µM in assay [5]; greater than 30 µM in [6]; greater than 30 µM on Histamine H3 receptor; greater than 30 µM in assay [7]; greater than 10 µM in assay [9].

On to `CCCCCCCCNC(C)C(O)c1ccc(SC(C)C)cc1` (stereo not drawn) [SULOCTIDIL], for which the AC50 on Adenosine receptor A3 turned out to be 9.82 µM.

With `CCCCNc1ccc(C(=O)OCCN(C)C)cc1` [TETRACAINE], the AC50 on Histamine H2 receptor was greater than 10 µM; in assay [8], greater than 10 µM; in assay [2], greater than 10 µM; on B2 bradykinin receptor, greater than 30 µM; in [3] it was greater than 30 µM; in assay [4], greater than 10 µM. Also, the AC50 is greater than 10 µM in [5]; greater than 30 µM in assay [6]; greater than 10 µM on Histamine H3 receptor; greater than 10 µM in [7]; greater than 10 µM in assay [9].

`CN1CCN(CCCN2c3ccccc3Sc3ccc(S(=O)(=O)N(C)C)cc32)CC1` [THIOPROPERAZINE]: the AC50 (on Histamine H2 receptor; in [8]; in [2]; in [3]; in assay [4]; in assay [5]) was greater than 30 µM in each case. Further, the AC50 is greater than 30 µM in [6], 17.3 µM in assay [1] and greater than 10 µM in assay [9].

Consider `CC1(C)O[C@@H]2[C@@H](CO[C@@]3(COS(N)(=O)=O)OC(C)(C)O[C@@H]23)O1` [TOPIRAMATE], for which the half-maximal activity concentration (AC50) was greater than 10 µM at Histamine H2 receptor; greater than 10 µM in assay [8]; greater than 10 µM in assay [2]; greater than 30 µM at B2 bradykinin receptor; greater than 10 µM in assay [4]; greater than 10 µM in [5]. The concentration at half-maximal activity (AC50) was greater than 30 µM in [6]; greater than 30 µM in [1]; greater than 10 µM on Histamine H3 receptor; greater than 10 µM in assay [7]; greater than 10 µM in [9].

For `Cc1cc(CC(=O)O)n(C)c1C(=O)c1ccc(Cl)cc1` [ZOMEPIRAC], the AC50 (at Histamine H2 receptor; in assay [8]; in assay [2]; at B2 bradykinin receptor; in assay [3]; in assay [4]) was greater than 30 µM in each case. Besides, the AC50 (in [5]; in assay [6]; on Histamine H3 receptor; in assay [7]; in assay [9]) was greater than 30 µM throughout.
